Tested on: SEM cells
Assay: cell viability relative to DMSO control; higher = less cytotoxic
Settings: 48 h
Summary of the method: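 Three leukemia lines were tested: NOMO1 and SEM at 500 cells/well and P12-Ichikawa at 1000 cells/well. Each was adapted for at least four passages in each medium and seeded in 5 μl in 1536-well plates, and library compounds in DMSO were pin-dosed from 47 μM to 0.79 nM in 11 threefold steps. After 48 h at 37°C, CellTiter-Glo One luminescence was read. Viability is a percentage relative to DMSO wells on each plate, with cell-free wells as background.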

[1] = HPLM + 10% dialyzed FBS, 0.000781 µM
[2] = HPLM + 10% dialyzed FBS, 0.00234 µM
[3] = HPLM + 10% dialyzed FBS, 0.00702 µM
[4] = HPLM + 10% dialyzed FBS, 0.0211 µM
[5] = HPLM + 10% dialyzed FBS, 0.0632 µM
[6] = HPLM + 10% dialyzed FBS, 0.19 µM
[7] = HPLM + 10% dialyzed FBS, 0.569 µM
[8] = HPLM + 10% dialyzed FBS, 1.71 µM
[9] = HPLM + 10% dialyzed FBS, 5.12 µM
[10] = HPLM + 10% dialyzed FBS, 15.4 µM
[11] = HPLM + 10% dialyzed FBS, 46.1 µM
[12] = RPMI 5 mM glucose + 10% FBS, 0.000781 µM
[13] = RPMI 5 mM glucose + 10% FBS, 0.00234 µM
[14] = RPMI 5 mM glucose + 10% FBS, 0.00702 µM
[15] = RPMI 5 mM glucose + 10% FBS, 0.0211 µM
[16] = RPMI 5 mM glucose + 10% FBS, 0.0632 µM
[17] = RPMI 5 mM glucose + 10% FBS, 0.19 µM
[18] = RPMI 5 mM glucose + 10% FBS, 0.569 µM
[19] = RPMI 5 mM glucose + 10% FBS, 1.71 µM
[20] = RPMI 5 mM glucose + 10% FBS, 5.12 µM
[21] = RPMI 5 mM glucose + 10% FBS, 15.4 µM
[22] = RPMI 5 mM glucose + 10% FBS, 46.1 µM
[23] = RPMI 5 mM glucose + 10% dialyzed FBS, 0.000781 µM
[24] = RPMI 5 mM glucose + 10% dialyzed FBS, 0.00234 µM
[25] = RPMI 5 mM glucose + 10% dialyzed FBS, 0.00702 µM
[26] = RPMI 5 mM glucose + 10% dialyzed FBS, 0.0211 µM
[27] = RPMI 5 mM glucose + 10% dialyzed FBS, 0.0632 µM
[28] = RPMI 5 mM glucose + 10% dialyzed FBS, 0.19 µM
[29] = RPMI 5 mM glucose + 10% dialyzed FBS, 0.569 µM
[30] = RPMI 5 mM glucose + 10% dialyzed FBS, 1.71 µM
[31] = RPMI 5 mM glucose + 10% dialyzed FBS, 5.12 µM
[32] = RPMI 5 mM glucose + 10% dialyzed FBS, 15.4 µM
[33] = RPMI 5 mM glucose + 10% dialyzed FBS, 46.1 µM

| SMILES | cell viability [1] [%] | cell viability [2] [%] | cell viability [3] [%] | cell viability [4] [%] | cell viability [5] [%] | cell viability [6] [%] | cell viability [7] [%] | cell viability [8] [%] | cell viability [9] [%] | cell viability [10] [%] | cell viability [11] [%] | cell viability [12] [%] | cell viability [13] [%] | cell viability [14] [%] | cell viability [15] [%] | cell viability [16] [%] | cell viability [17] [%] | cell viability [18] [%] | cell viability [19] [%] | cell viability [20] [%] | cell viability [21] [%] | cell viability [22] [%] | cell viability [23] [%] | cell viability [24] [%] | cell viability [25] [%] | cell viability [26] [%] | cell viability [27] [%] | cell viability [28] [%] | cell viability [29] [%] | cell viability [30] [%] | cell viability [31] [%] | cell viability [32] [%] | cell viability [33] [%] |
| --- | --- | --- | --- | --- | --- | --- | --- | --- | --- | --- | --- | --- | --- | --- | --- | --- | --- | --- | --- | --- | --- | --- | --- | --- | --- | --- | --- | --- | --- | --- | --- | --- | --- |
| CCNC(=O)c1cc2c(-c3cc(OCCN4CCCC4)c(Cl)cc3Cl)nc(N)nc2s1 | 114 | 112 | 112 | 101 | 104 | 114 | 101 | 95.2 | 32.2 | 20.1 | 19.4 | 103 | 108 | 117 | 96.6 | 112 | 112 | 112 | 86.9 | 31.9 | 21.8 | 18.7 | 96.2 | 98.6 | 92.2 | 110 | 98.7 | 112 | 98 | 68.3 | 30.3 | 19.4 | 19.1 |
| CCCCCCCc1ccc(CCc2cccc(O)c2C(=O)O)cc1 |  |  |  |  |  |  |  |  |  |  |  | 82.3 | 113 | 126 | 128 | 120 | 112 | 111 | 122 | 105 | 107 | 101 | 75.5 | 121 | 135 | 130 | 119 | 111 | 134 | 119 | 110 | 125 | 107 |
| O=C(NC[C@H](O)CN1CCc2ccccc2C1)c1cc(NC2COC2)ncn1 | 58.8 | 84.9 | 91.5 | 81.6 | 86.3 | 75 | 68.5 | 71.6 | 78.4 | 68.6 | 26.9 | 71.9 | 145 | 124 | 141 | 132 | 121 | 108 | 108 | 114 | 88.5 | 47.2 | 59 | 107 | 100 | 91.1 | 73.8 | 81 | 80.5 | 75.2 | 84.2 | 65.1 | 25.2 |
| C=CC1=C(C(=O)O)N2C(=O)[C@@H](NC(=O)/C(=N\O)c3csc(N)n3)[C@H]2SC1 | 80.6 | 81.9 | 20.4 | 86.1 | 87.3 | 98.9 | 89.8 | 91.1 | 83.1 | 93.4 | 95.7 | 87.5 | 107 | 10.3 | 104 | 96.7 | 109 | 102 | 108 | 121 | 98.7 | 106 | 83.1 | 86.6 | 27.4 | 108 | 94.5 | 107 | 97.1 | 101 | 116 | 112 | 101 |
| COc1cc2c(Nc3ccc(Cl)c(Cl)c3F)ncnc2cc1OC[C@@H]1C[C@@H]2CN(C)C[C@@H]2C1 | 105 | 118 | 121 | 120 | 98.8 | 113 | 100 | 93.3 | 56 | 47 | 10.1 | 98 | 117 | 121 | 144 | 118 | 118 | 101 | 64.2 | 44.4 | 48 | 5.51 | 112 | 109 | 133 | 129 | 119 | 124 | 110 | 75.8 | 67 | 55.7 | 6.25 |
| CCN(CC)CCCCNc1nc2cc(Cl)c(Cl)cc2nc1-c1ccc(-c2cccs2)s1 | 83.7 | 110 | 27.8 | 121 | 110 | 102 | 115 | 114 | 107 | 124 | 8.47 | 93.7 | 94.9 | 8.03 | 101 | 96.8 | 102 | 114 | 98.9 | 107 | 93.9 | 5.71 | 106 | 121 | 26.4 | 130 | 118 | 126 | 116 | 116 | 126 | 131 | 8.47 |
| Cn1c(Nc2ccc(C(F)(F)F)cc2)nc2cc(Oc3ccnc(-c4nc(C(F)(F)F)c[nH]4)c3)ccc21 | 97.1 | 114 | 116 | 96.8 | 127 | 115 | 109 | 96.2 | 59.6 | 55.1 | 24.8 | 111 | 109 | 124 | 94.8 | 136 | 117 | 122 | 98.2 | 53.4 | 44.2 | 12.7 | 108 | 118 | 134 | 102 | 128 | 130 | 116 | 112 | 55.3 | 48.6 | 18.1 |
| CN(C/C=C/C#CC(C)(C)C)Cc1cccc2ccccc12 | 81.5 | 84.7 | 93 | 92.4 | 96.3 | 101 | 114 | 94 | 107 | 100 | 98.3 | 72.2 | 99.6 | 86.7 | 94.2 | 93.3 | 101 | 105 | 105 | 95 | 76.5 | 99.4 | 81 | 90.4 | 85.9 | 98.9 | 110 | 95.6 | 96.6 | 104 | 117 | 104 | 95 |
| OC[C@H](Cc1ccccc1)Nc1nc(Oc2ccc3c(c2)CCC3)nc2c1ncn2Cc1ccc(-c2ccccc2)cc1 | 90.7 | 101 | 98.5 | 107 | 108 | 78.4 | 105 | 99.2 | 103 | 80.3 | 62.9 | 85.3 | 85.9 | 91.7 | 93.8 | 89.5 | 89.2 | 95 | 97.9 | 94.7 | 80.7 | 76.7 | 80 | 97.8 | 94.3 | 89.5 | 92.4 | 89.2 | 100 | 101 | 88.5 | 84.4 | 69.9 |
| C[C@@]12O[C@@H](C[C@]1(O)CO)n1c3ccccc3c3c4c(c5c6ccccc6n2c5c31)CNC4=O | 117 | 125 | 127 | 109 | 89.7 | 65.5 | 27.3 | 18.4 | 14.8 | 11.8 | 7.23 |  |  |  |  |  |  |  |  |  |  |  | 118 | 111 | 96.4 | 106 | 65 | 52.1 | 20.2 | 13 | 8.04 | 6.86 | 5.81 |
| CCC1(c2ccc(N)cc2)CCC(=O)NC1=O (configuration not stated) | 114 | 113 | 127 | 114 | 118 | 114 | 107 | 55.3 | 108 | 95.1 | 96.6 |  |  |  |  |  |  |  |  |  |  |  |  |  |  |  |  |  |  |  |  |  |  |
| C[S+](=O)([O-])N(Cc1ccco1)CC(O)Cn1c2ccccc2c2ccccc21 (configuration not stated) | 106 | 88.5 | 100 | 100 | 99.5 | 98 | 92.8 | 97.6 | 55.4 | 56.5 | 18.5 | 115 | 113 | 127 | 119 | 122 | 116 | 106 | 109 | 63.3 | 59.1 | 10.7 | 91.8 | 99.5 | 108 | 96.7 | 102 | 106 | 91 | 78.4 | 46.3 | 35.9 | 8.62 |

Reference: the supplement of paper PMC11451515
